This note sets out measurements from PubChem BioAssay AID743234 (The Scripps Research Institute Molecular Screening Center, 2013).

Active and inactive are the calls of the source. How the calls were made is not given here. A value given as a limit tells only on which side of the number the result lay.

In the assay the target is Trace amine-associated receptor 1 (Homo sapiens) (UniProt Q96RJ0). As to the kind of experiment: blockers of human TAAR1 signalling – cell-based, fluorescence, late-stage follow-up (AID 743234). The conditions noted are these: TAAR1-expressing cells, fluorescence antagonist readout.
Sequence of Trace amine-associated receptor 1 (Homo sapiens) (Q96RJ0 whole entry, looked up, the tested form may be a part): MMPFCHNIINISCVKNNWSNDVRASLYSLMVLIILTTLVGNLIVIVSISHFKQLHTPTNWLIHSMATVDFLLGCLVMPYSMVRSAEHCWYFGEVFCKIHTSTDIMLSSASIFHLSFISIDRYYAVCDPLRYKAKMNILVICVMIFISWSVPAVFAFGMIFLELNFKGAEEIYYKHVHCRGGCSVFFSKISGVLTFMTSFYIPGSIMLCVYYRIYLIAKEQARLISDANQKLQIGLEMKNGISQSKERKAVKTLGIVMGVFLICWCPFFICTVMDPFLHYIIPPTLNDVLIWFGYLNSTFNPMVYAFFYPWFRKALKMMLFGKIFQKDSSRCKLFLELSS

Regarding `COc1cccc(-c2nn(-c3ccccc3)cc2C(=O)Nc2nccs2)c1`, the IC50 (in general, the concentration at which inhibition is half-maximal) was “inactive”.
Then `COc1cc(NC(=O)c2cc3ccccc3o2)c(OC)cc1Cl`, with > 29900 nM (inactive); and `O=C(NCCn1cc(SCc2ccccc2F)c2ccccc21)c1c(F)cccc1F`, with “inactive”; and `Cc1cccc(C(C#N)c2nc3ccccc3nc2C(F)(F)F)c1` (stereo not given), with 1730 nM.
Then `Cc1ccc(CSCC(=O)Nc2cc(S(=O)(=O)N3CCOCC3)ccc2OCC(F)(F)F)cc1`, with 1600 nM.
